“And” between values parts separate entries of the source, which are not always exact repeats. Equal values may be shown once.
Columns and labels:
[1] = system: peroxides in the skin; assay: Peroxide level in skin of adult mice (TBA test), topical application; format: in vivo; conditions: 0.1% in Oil of Olay
Text: Samples of lotions and appropriate controls were applied to mice or rat skin for a fixed period. The application was done once a day. Experiments were terminated by killing the animal, peeling the skin and freezing it in liquid nitrogen. Samples of the frozen skin were homogenized in 0.2M phosphate buffer, pH 6.5. After centrifugation, the supernatant was collected and analyzed for the peroxide value using the TBA (thiobarbituric acid) test as described by Sinnhuber et al, Food Res. 23:620 (1958).
In these experiments adult mice (2 months old) were treated as described in Example 2. The grown mice were shaved before applying the lotions to the skin. In this experiment the antioxidant was dissolved in Oil of Olay. Mice were sacrificed after 21 days.

[2] = system: peroxide level in the skin; assay: Malondialdehyde (MDA) level in epidermis of UV-irradiated hairless mice; format: in vivo, hairless mice (SKH/Hr); conditions: for % decrease in MDA, mean / MDA, Treated Irradiated Site, mean / % decrease in MDA / MDA, Treated Irradiated Site: 5% in ethanol
Text: In this experiment, alpha-tocopheryl acetate and the present antioxidant were applied to the skin of hairless mice and the level of peroxide in the skin after exposure to UV radiation compared to a control group. The detailed procedure was as follows.
The malondialdehyde (MDA) assay is based on the methods of Dixit et al [J. Invest. Derm., 81: 369-75 (1983)], Tappel and Summerfield ["Measurement of and protection from in vivo lipid peroxidation", Free Radicals in Biology Vol. IV (1980). Academic Press, New York (W. A. Pryor, ed.)] and Placer et al [Analytical Biochemistry, 16:359-64 (1966)].
6-8week old hairless mice [(SKH/Hr); Skin and Cancer Hospital, Temple University, Philadelphia] were anesthetized using a 1:10 dilution of Sodium Pentobarbital (50 mg./ml., Elkins-Sinn. Inc.). The UV light sources were 2 fluorescent lamps (Westinghouse PS-40) and light intensity was measured with an Optometer (United Detector Technology) using a UVB filter. The tissue was homogenized using a Heat Systems model W-10 Sonicator, filtration and centrifugation of the homogenates being effected through a 2.5 micron Millipore filter and a Sorvall RC-5 Speed Centrifuge, respectively. The buffer consisted of 0.1M potassium phosphate, pH 7.4 with 10^-4 M magnesium chloride.
The protein assay is based on the method given in Clinical Chemistry, 23: 908 (1977). The modified biuret reagent contains per liter 3.8 g. CuSO4, 6.7 g. EDTA, 17.5 g. glycine, 14.0 g. NaCI and 40.0 g. NaOH. Absorbance was measured on an MS-2 Spectrophotometer (Micromedic Systems, Inc.).
20 mice were anesthetized with Sodium Pentobarbital (0.5 mg./10 g. body weight). Two rectangular areas, 6.25 cm.^2 each, were outlined on the dorsal and ventral sides of each mouse. The dorsal areas were designated as left dorsal (site A) and right dorsal (site B). The ventral areas were designated as left ventral (site C) and right ventral (site D). The products were applied in an aliquot of 75 ul. to the designated sites. The application protocol was randomized so that a given treatment was not restricted to the same area of the skin. One site on each dorsal and ventral side remained untreated to serve as the irradiated controls. 15 minutes after product application, the mice were exposed to 110 millijoules of UV light per cm.^2 of skin area over a period of 220 seconds per side. The mice were placed so that the area to be irradiated was directly under the light source while the areas on the other side were protected from the radiation. The mice were irradiated on both the dorsal and ventral sides. After UV treatment, the mice were returned to separate cages to recover from the anesthesia.
4 hours after irradiation, the mice were sacrificed by cervical dislocation. The skin was removed and stretched over a styrofoam block. The epidermis was separated from the dermis by heating the skin in a water bath for 60 seconds at 54° C. and then scraping the surface with a scalpel. Each 6.25 cm. area of epidermis was placed in a separate 1.5 ml. Eppendorf vial with 200 ul. of buffer. The pieces of epidermis were homogenized by sonication for 2×30 seconds, with a 10 second pause between each 30 second period to prevent heat buildup. The vial was kept in an ice bath.
After homogenization, 1 ml. of buffer was added to each vial and vortexed. The homogenate was filtered through a 2.5 micron filter, twice. An aliquot containing 1.4-1.8 mg. of homogenate protein was placed into test tubes with 0.6 ml. 10% trichloroacetic acid and 1.2 ml. 0.5% (w/v) 2-thiobarbituric acid. The test tube mixture was well vortexed and then placed in a boiling water bath for 10 minutes, the top of the test tube being covered with a marble which acted as a condensor. The tubes were cooled with running tap water and centrifuged for 15 minutes at 30,000×g. Blanks were prepared by placing 0.1M phosphate buffer in test tubes. All assays were done in duplicate. […]

[3] = system: prostacyclin (PGI2); assay: Endogenous release of prostacyclin by isolated aorta segments of fed rabbits; format: in vivo; conditions: after 30 days, vs basal vitamin E deficient diet
[4] = system: Fibroblasts; assay: Lipid peroxidation in fibroblast culture, TBA assay; format: cell-based; conditions: 0.01%, 3 days of incubation, 37° C.
Experimental: The possibility that the present antioxidant may serve as a substitute for vitamin E was also tested in tissue culture. Fibroblasts were grown in an appropriate medium for three days at a temperature of 37° C., (a) in absence of additive (control), (b) in presence of 0.01% vitamin E, and (c) in presence of 0.01% present (crude) antioxidant.

[5] = system: liver microsomal NADPH oxidase; assay: Liver microsomal NADPH oxidase activity in rabbits fed supplemented vitamin E deficient diet; format: in vivo; conditions: after 30 days, vs basal vitamin E deficient diet
[6] = system: pyruvate oxidase; assay: Pyruvate oxidase activity in rabbits fed supplemented vitamin E deficient diet; format: in vivo; conditions: after 30 days, vs basal vitamin E deficient diet
[7] = combined dorsal and ventral mean
[8] = ventral, individual samples 6-10

For `Cc1cc(C(C)(C)C)c(O)c(C(C)(C)C)c1` [BHT, butylated hydroxy toluene], the “effect on the level of peroxides in the skin” value (shortened to “effect on the level”) [1] was “no reduction of the level of peroxides was observed”.

For `Cc1c(C)c2c(c(C)c1O)CCC(C)(CCCC(C)CCCC(C)CCCC(C)C)O2` (stereo not drawn) [alpha tocopherol], the “effect on the level” value [1] was “no reduction of the level of peroxides was observed”.

For `COc1ccc(O)c(C(C)(C)C)c1` [BHA, butylated hydroxy anisole], the “effect on the level” value [1] was “no reduction of the level of peroxides was observed”.

With `CC(=O)Oc1c(C)c(C)c2c(c1C)CCC(C)(CCC[C@H](C)CCC[C@H](C)CCCC(C)C)O2` (stereo partly drawn) [alp. tocopheryl acetate, alpha-tocopheryl acetate] the “effectiveness in reducing the level of peroxides in the skin” value ([2]; 1% antioxidant in Oil of Olay vs 5% alpha-tocopheryl acetate in ethanol) was “significantly less effective”, the “% decrease in MDA, mean” value [2, 7] was 27.82% and the “MDA, Treated Irradiated Site, mean” value [2, 7] was 0.168 nM MDA/mg. protein. The “% decrease in MDA, mean” value ([2]; dorsal mean) was 27.26%, the “MDA, Treated Irradiated Site, mean” value ([2]; dorsal mean) was 0.165 nM MDA/mg. protein and the “% decrease in MDA” value ([2]; dorsal, individual samples 1-5) was 34.78% and 39.77% and 22.92% and 12.75% and 26.10%. The “MDA, Treated Irradiated Site” value ([2]; dorsal, individual samples 1-5) was 0.105 nM MDA/mg. protein and 0.103 nM MDA/mg. protein and 0.074 nM MDA/mg. protein and 0.308 nM MDA/mg. protein and 0.235 nM MDA/mg. protein, the “% decrease in MDA, mean” value ([2]; ventral mean) was 28.38% and the “MDA, Treated Irradiated Site, mean” value ([2]; ventral mean) was 0.172 nM MDA/mg. protein. The “% decrease in MDA” value [2, 8] was 42.41% and 28.95% and 23.17% and 22.39% and 25.00% and the “MDA, Treated Irradiated Site” value [2, 8] was 0.148 nM MDA/mg. protein and 0.189 nM MDA/mg. protein and 0.305 nM MDA/mg. protein and 0.027 nM MDA/mg. protein.

vitamin E was tested, and the “endogenous release of prostacyclin (PGI2), detected as 6-keto-PGF1-alpha” value [3] was “significantly increased”, the “Peroxide value (TBA assay)” value [4] was 0.015 and the “liver microsomal NADPH oxidase activity (enzymatic lipid peroxidation)” value [5] was “decreased”. The “pyruvate oxidase activity (enzymatic lipid peroxidation)” value [6] was “decreased”.

Reference: patent publication US4976960A, “Food supplements” (Bar Ilan University, priority 1986, dated 1990)
